Measurements published in patent publication US20210244721A1, “SMALL MOLECULE ENTEROVIRUS INHIBITORS AND USES THEREOF” (priority 2020, published 2021).

Tests used:
EV-A71 Tainan/4643/98 = assay: CPE assay, EV-A71 Tainan in RD cells; type: cell-based; details: Enterovirus A, EVA71; EV-A71 Tainan, RD cells; read-out: EC50
in vitro [1] = details: human
in vitro [2] = details: African green monkey
[3] = test system: EV-D68 US/KY/14-18953 virus; assay: CPE assay, EV-D68 US/KY/14-18953 in RD cells; type: cell-based, Enterovirus D68 (EV-D68); details: EV-D68 US/KY/14-18953, RD cells
A549 = assay: Cytotoxicity in A549 cells
HeLa = assay: Cytotoxicity in HeLa cells
RD cells = assay: Cytotoxicity, neutral red method, RD cells; details: RD cells, neutral red method
EV-D68 US/MO/14-18947 = assay: CPE assay, EV-D68 US/MO/14-18947 in RD cells; details: EV-D68 US/MO/14-18947, RD cells
EV-D68 US/MO/14-18949 = assay: CPE assay, EV-D68 US/MO/14-18949 in RD cells; details: EV-D68 US/MO/14-18949, RD cells
EV-D68 US/IL/14-18956 = assay: CPE assay, EV-D68 US/IL/14-18956 in RD cells; details: EV-D68 US/IL/14-18956, RD cells
EV-D68 UA/IL/14-18952 = assay: CPE assay, EV-D68 UA/IL/14-18952 in RD cells; details: EV-D68 UA/IL/14-18952, RD cells

EC50 (EV-A71 Tainan/4643/98) [µM] | Structure (SMILES) | CC50 at 3 days (in vitro [1]) [µM] | CC50 at 3 days (in vitro [2]) [µM] | SI = selectivity index (CC50/EC50) [3] | CC50 (A549) [µM] | CC50 (HeLa) [µM] | CC50 (RD cells) [µM] | SI (CC50/EC50) (EV-D68 US/MO/14-18947) | EC50 (EV-D68 US/MO/14-18947; Enterovirus D, EVD68, RD) [µM] | SI (CC50/EC50) (EV-D68 US/MO/14-18949) | SI (CC50/EC50) (EV-D68 US/IL/14-18956) | SI (CC50/EC50) (EV-D68 UA/IL/14-18952)
> 20 | Cc1ccc2c(c1)c1c3n2CCNC3CCC1 (stereo not drawn) [drawing 197] | 19 | 40.5 |  |  |  |  |  |  |  |  | 
 | O=C(NCCN1CCCC1)c1cc(-c2cccs2)nc2ccccc12 [drawing 130] |  |  | 666.7 | 83.2 | 41.7 | 40 | 666.7 | 0.06 | 800 | 800 | 571.4
